Source: PMC4691061, “Repositioning of Thiourea-Containing Drugs as Tyrosinase Inhibitors” (International Journal of Molecular Sciences, 2015)
Like-named read-outs stand apart in the source and are kept apart here.

Legend:
tyrosinase = details: cited from earlier work
mushroom tyrosinase [1] = molecular target: T1, mushroom tyrosinase (Agaricus bisporus, UniProt C7FF04); assay: Kinetics of enzyme inhibition (Michaelis-Menten, nonlinear fitting, F-statistics); assay type: biochemical; details: for Mechanism: model selected by F-statistics among competitive, uncompetitive, non-competitive, mixed
B16F10 cells [2] = assay: Melanin content assay (IBMX-stimulated); assay type: cell-based, murine; details: for activity at 20 µM: Mus musculus
mammalian tyrosinase = molecular target: T2, mammalian tyrosinase (Mus musculus, UniProt P11344); assay: Tyrosinase enzyme assay with B16F10 cell lysates; assay type: biochemical, murine; details: for Cell Lysate (%): B16F10 cell lysates, DOPA substrate, absence of inhibitor = 100%; for inhibition of mammalian tyrosinase (in words): cell extracts of B16F10 cells
T2 construct: host or cells: B16F10 murine melanoma cells (lysate supernatant)
T2 sequence (P11344 19-533): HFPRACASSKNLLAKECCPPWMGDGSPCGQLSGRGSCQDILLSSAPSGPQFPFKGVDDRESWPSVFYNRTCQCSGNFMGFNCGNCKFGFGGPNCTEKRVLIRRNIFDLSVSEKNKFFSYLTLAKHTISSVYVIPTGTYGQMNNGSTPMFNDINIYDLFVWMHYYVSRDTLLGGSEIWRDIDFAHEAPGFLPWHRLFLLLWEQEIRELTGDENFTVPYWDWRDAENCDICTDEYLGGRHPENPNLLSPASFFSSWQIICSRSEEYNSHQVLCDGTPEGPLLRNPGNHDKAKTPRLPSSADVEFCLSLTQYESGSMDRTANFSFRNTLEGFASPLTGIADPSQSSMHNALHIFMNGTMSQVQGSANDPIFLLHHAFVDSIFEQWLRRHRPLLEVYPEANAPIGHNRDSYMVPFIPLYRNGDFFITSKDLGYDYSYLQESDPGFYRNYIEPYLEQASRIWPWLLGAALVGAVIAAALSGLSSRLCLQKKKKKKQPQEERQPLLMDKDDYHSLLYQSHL

B16F10 cells [3] = assay: MTT cell viability assay; details: for MTT (%): 20 µM, mean ± SD, triplicate
mushroom tyrosinase [4] = molecular target: T1, mushroom tyrosinase; assay: Mushroom tyrosinase enzyme activity inhibition assay; assay type: biochemical; details: for LE (ligand efficiency): 1.4 × (−log10IC50)/N, N = number of non-hydrogen atoms; for inhibition of tyrosinase enzyme activity (in words): concentration-dependent profiles, urea, thiourea, selenourea compared without DMSO; for inhibition of tyrosinase (in words): at 300 μM
[5] = BindingDB-registered value, read-out: IC50 of closest known inhibitor
[6] = 20 μM, B16F10 cells, IBMX 100 μM
[7] = B16-F10, 20 µM, B16F10 cells, IBMX 100 μM, absence of inhibitor = 100%, read-out: Melanin Content (%)
[8] = mushroom tyrosinase, 675 μM L-tyrosine as substrate, 5% DMSO, read-out: IC50
[9] = Ki for competitive, Kic for non-competitive model, nonlinear data fitting, read-out: Ki or Kic

T1 sequence (C7FF04 1-392): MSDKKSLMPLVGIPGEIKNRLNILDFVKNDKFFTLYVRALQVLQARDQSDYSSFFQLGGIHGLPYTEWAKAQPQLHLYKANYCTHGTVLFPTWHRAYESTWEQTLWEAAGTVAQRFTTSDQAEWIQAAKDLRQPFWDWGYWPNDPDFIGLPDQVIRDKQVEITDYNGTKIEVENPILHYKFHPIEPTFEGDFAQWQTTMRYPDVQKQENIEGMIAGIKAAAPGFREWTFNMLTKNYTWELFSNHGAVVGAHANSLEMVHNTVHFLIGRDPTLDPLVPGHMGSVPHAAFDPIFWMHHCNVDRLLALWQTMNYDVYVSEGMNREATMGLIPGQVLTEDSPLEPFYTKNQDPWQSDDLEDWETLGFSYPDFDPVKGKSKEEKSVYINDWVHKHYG

NC(=S)NN=Cc1ccc(F)cc1 [C00010, 4-fluorobenzaldehyde thiosemicarbazone]
IC50 (tyrosinase; [5]): 11 µM

NC(=S)NN=C1CCCC1 [C00011, cyclopentanone thiosemicarbazone]
IC50 (tyrosinase; [5]): 0.17 µM

Nn1c(-c2ccncc2)n[nH]c1=S [C00012]
Ki (tyrosinase; BindingDB-registered value, column headed IC50, footnote says Ki, read-out: Ki of closest known inhibitor): 1 µM

O=c1[nH]c(=S)[nH]c(O)c1Cc1ccc(O)cc1 [C00013]
IC50 (tyrosinase; [5]): 70 µM | IC50 (tyrosinase; known tyrosinase inhibitor, read-out: IC50): 70 µM

CCCCOCCOc1ccc(Cc2c(O)[nH]c(=S)[nH]c2=O)cc1 [C00014]
IC50 (tyrosinase; [5]): 179 µM

NC(=S)Nc1ccccc1 [compound 1, Phenylthiourea]
Mechanism (mushroom tyrosinase [1]): Competitive | Mechanism (mushroom tyrosinase [1]; listed as PTU): competitive inhibitors | decrease of melanin content (B16F10 cells [2]; [6]): 40% | activity at 20 µM (B16F10 cells [2]; B16-F10, read-out: Melanin Content (%)): 59 ± 7% | Cell Lysate (%) (mammalian tyrosinase): 5 ± 1% | inhibition mechanism (reported) (tyrosinase): competitive inhibitors | MTT (%) (B16F10 cells [3]): 113 ± 10%

O=c1cc(CO)occ1O [compound 2, Kojic acid]
decrease of melanin content (B16F10 cells [2]; [6]): < 5% | activity at 20 µM (B16F10 cells [2]; [7]): 108 ± 11% | inhibition mechanism (reported) (tyrosinase): competitive inhibitors | MTT (%) (B16F10 cells [3]): 114 ± 10%

CC(=O)Nc1ccc(/C=N/NC(N)=S)cc1 [compound 3, Thioacetazone]
IC50 (mushroom tyrosinase [4]): 14 µM | LE (ligand efficiency) (mushroom tyrosinase [4]): 0.43 | Ki (mushroom tyrosinase [1]): 18 µM | Mechanism (mushroom tyrosinase [1]): Non-competitive | activity at 20 µM (B16F10 cells [2]; [7]): 102 ± 10% | Cell Lysate (%) (mammalian tyrosinase): 74 ± 7% | inhibition of mammalian tyrosinase (in words) (mammalian tyrosinase): significantly inhibited the function of tyrosinase | MTT (%) (B16F10 cells [3]): 95 ± 15%

N=C(N)NN=C1C=CC(=NNC(N)=S)C=C1 [compound 4, Ambazone]
IC50 (mushroom tyrosinase [4]): 15 µM | LE (ligand efficiency) (mushroom tyrosinase [4]): 0.42 | Ki (mushroom tyrosinase [1]): 9 µM | Mechanism (mushroom tyrosinase [1]): Non-competitive | effect on melanin content (in words) (B16F10 cells [2]; 20 μM, B16F10 cells): decreased melanin content | decrease of melanin content (B16F10 cells [2]; [6]): 20% | activity at 20 µM (B16F10 cells [2]; [7]): 80 ± 11% | Cell Lysate (%) (mammalian tyrosinase): 87 ± 9% | inhibition of mammalian tyrosinase (in words) (mammalian tyrosinase): significantly inhibited the function of tyrosinase | MTT (%) (B16F10 cells [3]): 95 ± 12% | cytotoxicity (in words) (B16F10 cells [3]; up to 20 μM): without causing cellular toxicity

Cn1cc[nH]c1=S [compound 5, Methimazole]
IC50 (mushroom tyrosinase [4]; [8]): 94 µM | Ki (mushroom tyrosinase [1]; [9]): 73 µM | Mechanism (mushroom tyrosinase [1]): Non-competitive | Mechanism (mushroom tyrosinase [1]; listed as methimazole): non-competitive inhibitor | activity at 20 µM (B16F10 cells [2]; [7]): 104 ± 12% | Cell Lysate (%) (mammalian tyrosinase): 93 ± 10% | inhibition of mammalian tyrosinase (in words) (mammalian tyrosinase): limited | inhibition mechanism (reported) (tyrosinase): mixed inhibitor | MTT (%) (B16F10 cells [3]): 100 ± 9%

CCOC(=O)n1ccn(C)c1=S [compound 6, Carbimazole]
inhibition of tyrosinase enzyme activity (in words) (mushroom tyrosinase [4]): did not inhibit tyrosinase | IC50 (mushroom tyrosinase [4]; [8]): > 2000 µM

O=c1cc[nH]c(=S)[nH]1 [compound 7, Thiouracil]
IC50 (mushroom tyrosinase [4]): 215 µM | LE (ligand efficiency) (mushroom tyrosinase [4]): 0.64 | Mechanism (mushroom tyrosinase [1]): Non-competitive | activity at 20 µM (B16F10 cells [2]; [7]): 106 ± 14% | Cell Lysate (%) (mammalian tyrosinase): 79 ± 9% | inhibition of mammalian tyrosinase (in words) (mammalian tyrosinase): significantly inhibited the function of tyrosinase | MTT (%) (B16F10 cells [3]): 99 ± 10%

Cc1cc(=O)[nH]c(=S)[nH]1 [compound 8, Methylthiouracil]
LE (ligand efficiency) (mushroom tyrosinase [4]): 0.56 | IC50 (mushroom tyrosinase [4]; [8]): 266 µM | Ki (mushroom tyrosinase [1]; [9]): 170 µM | Mechanism (mushroom tyrosinase [1]): Non-competitive | activity at 20 µM (B16F10 cells [2]; [7]): 102 ± 14% | Cell Lysate (%) (mammalian tyrosinase): 78 ± 10% | inhibition of mammalian tyrosinase (in words) (mammalian tyrosinase): significantly inhibited the function of tyrosinase | MTT (%) (B16F10 cells [3]): 108 ± 10%

CCCc1cc(=O)[nH]c(=S)[nH]1 [compound 9, Propylthiouracil]
IC50 (mushroom tyrosinase [4]): 375 µM | Ki (mushroom tyrosinase [1]): 196 µM | Mechanism (mushroom tyrosinase [1]): Non-competitive | activity at 20 µM (B16F10 cells [2]; [7]): 102 ± 10% | Cell Lysate (%) (mammalian tyrosinase): 77 ± 9% | inhibition of mammalian tyrosinase (in words) (mammalian tyrosinase): significantly inhibited the function of tyrosinase | MTT (%) (B16F10 cells [3]): 102 ± 12%

CNC(=S)NC [dimethylthiourea]
inhibition of tyrosinase (in words) (mushroom tyrosinase [4]): hardly inhibited tyrosinase | inhibition of tyrosinase enzyme activity (in words) (mushroom tyrosinase [4]): much weaker than thiourea

CNC(N)=S [monomethylthiourea]
inhibition of tyrosinase enzyme activity (in words) (mushroom tyrosinase [4]): much weaker than thiourea

N=C(N)[SeH] [selenourea]
inhibition of tyrosinase enzyme activity (in words) (mushroom tyrosinase [4]): no effect on activity

CN(C)C(=S)N(C)C [tetramethylthiourea]
inhibition of tyrosinase (in words) (mushroom tyrosinase [4]): hardly inhibited tyrosinase | inhibition of tyrosinase enzyme activity (in words) (mushroom tyrosinase [4]): much weaker than thiourea

NNC(N)=S [thiosemicarbazide]
inhibition of tyrosinase enzyme activity (in words) (mushroom tyrosinase [4]): much weaker than thiourea

NC(N)=S [thiourea]
inhibition of tyrosinase enzyme activity (in words) (mushroom tyrosinase [4]): decreased tyrosinase enzyme activity in a concentration dependent manner

CNC(=S)N(C)C [trimethylthiourea]
inhibition of tyrosinase (in words) (mushroom tyrosinase [4]): hardly inhibited tyrosinase | inhibition of tyrosinase enzyme activity (in words) (mushroom tyrosinase [4]): much weaker than thiourea

NC(N)=O [urea]
inhibition of tyrosinase enzyme activity (in words) (mushroom tyrosinase [4]): no effect on activity
